This passage reports IC50 results from patent US5380746A, “Bis-(1H-indol-3-YL)-maleinimide derivatives, processes for the preparation thereof and pharmaceutical compositions containing them” (Goedecke Aktiengesellschaft, priority 1989, dated 1995).

The structures appear in SMILES notation.

Holding throughout (assay type): biochemical
One assay has as its target MLC-kinase. Put plainly: inhibition of the MLC-kinase. To be noted: read-out: IC values of the inhibition of the MLC-kinase.
The next assay has as its target T1, G-kinase (Homo sapiens, UniProt Q13976).
T1 sequence (Q13976 1-671): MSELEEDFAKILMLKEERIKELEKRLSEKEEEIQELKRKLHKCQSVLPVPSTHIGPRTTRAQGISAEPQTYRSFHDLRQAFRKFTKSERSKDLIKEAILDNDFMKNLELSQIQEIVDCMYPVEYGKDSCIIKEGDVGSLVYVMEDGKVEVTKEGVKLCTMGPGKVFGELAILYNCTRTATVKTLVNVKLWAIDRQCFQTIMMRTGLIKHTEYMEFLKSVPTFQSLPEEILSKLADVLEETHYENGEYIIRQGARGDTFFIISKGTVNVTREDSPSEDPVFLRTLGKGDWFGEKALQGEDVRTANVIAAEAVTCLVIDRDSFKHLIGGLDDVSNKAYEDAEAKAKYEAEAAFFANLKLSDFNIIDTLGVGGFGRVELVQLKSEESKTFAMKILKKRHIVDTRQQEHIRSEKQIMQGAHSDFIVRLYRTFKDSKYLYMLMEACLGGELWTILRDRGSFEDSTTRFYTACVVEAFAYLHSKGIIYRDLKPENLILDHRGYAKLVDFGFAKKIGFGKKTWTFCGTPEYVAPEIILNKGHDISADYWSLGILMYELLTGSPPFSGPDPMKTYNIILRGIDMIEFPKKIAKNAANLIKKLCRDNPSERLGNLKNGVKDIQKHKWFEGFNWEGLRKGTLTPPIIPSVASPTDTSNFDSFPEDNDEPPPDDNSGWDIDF
In words: inhibition of the G-kinase. To be noted: read-out: IC values of the inhibition of the G-kinase.

A further assay addresses protein kinase C. Put plainly: enzyme assay of protein kinase C. The note with it: read-out: 50% inhibition at a concentration of, enzyme assay of protein kinase C.
A further assay addresses A-kinase (Homo sapiens, UniProt P17612). In words: inhibition of the A-kinase. To be noted: read-out: IC values of the inhibition of the A-kinase.

As for `Cn1cc(C2=C(c3c[nH]c4ccccc34)C(=O)NC2=O)c2ccccc21` [Example 1, 2-(1H-Indol-3-yl)-3-(1-methyl-1H-indol-3-yl)maleinimide], the IC50 turned out to be 4.5 µM on MLC-kinase, 15 µM on G-kinase, 0.14 µM at protein kinase C and 77 µM at A-kinase.
